According to patent publication US6291432A (Japan Energy Corporation, priority 1996, dated 2001):

The molecules below were run against T1, recombinant HIV-1 protease (Human immunodeficiency virus type 1 group M subtype B, UniProt P04585) (assay: HIV protease inhibition activity (enzyme activity inhibition rate)). Conditions: 50 nM final concentration of test compound; 60 min at 37° C.
T1 construct: measured using a recombinant HIV-1 protease
Assay type: biochemical
Experimental: The protease activity was measured using a recombinant HIV-1 protease (see Biochemistry, 250 (9)-264 (1990)) and a synthesized peptide substrate. The inhibition rate was calculated by determining a peptide fragment generated by cleavage between Tyr-Pro of the synthesized substrate after the reaction of 60 min at 37° C. using a reversed phase HPLC in the presence of the test compounds in various concentrations (see, for example, Japanese Patent Application Laid-open No. 170722/1993).
Examples of the evaluation results of the HIV protease inhibition activity of the tripeptide compound of the present invention by the above-described method is shown in Table 1. […] The concentration of the test compounds in Table 1 represents the final concentration in the reaction mixture.

Row | Molecule | Enzyme activity inhibition rate (%) (addition concentration of 50 nM)
1 | Cc1ccccc1CNC(=O)[C@H]1N(C(=O)[C@@H](O)[C@H](Cc2ccccc2)NC(=O)[C@@H](NC(=O)c2cc(=O)c3ccccc3o2)C(C)C)CSC1(C)C [Example 12, (R)-N-(2-methylbenzyl)-3-{(2S,3S)-3-[N-(2-chromonecarbonyl)-L-valyl]amino-2-hydroxy-4-phenylbutanoyl}-5,5-dimethyl-1,3-thiazolidine-4-carboxamide] | 97.4%
2 | (R)-N-(2-methylbenzyl)-3-{(2S,3S)-3-[N-(3-benzylphenoxyacetyl)-L-valyl]amin o-2-hydroxy-4-phenylbutanoyl}-5,5-dimethyl-1,3-thiazolidine-4-carboxamide [Example 17] | 97.1%
3 | CC[C@H](NC(=O)COc1ccc2ncccc2c1)C(=O)N[C@@H](Cc1ccccc1)[C@H](O)C(=O)N1CSC(C)(C)[C@H]1C(=O)NCc1ccccc1C [Example 24, (R)-N-(2-methylbenzyl)-3-{(2S,3S)-2-hydroxy-3-[(S)-2-(6-quinolinyloxyacetyl)aminobutanoyl]amino-4-phenylbutanoyl}-5,5-dimethyl-1-thiazolidine-4-carbox amide] | 98.1%

Same assay, conditions: 50 nM final concentration of test compound; 60 min at 37° C.; read-out: Enzyme activity inhibition rate (%) (addition concentration of 50 nM)

Row | Molecule | inhibition at 0.05 µM
4 | Cc1ccccc1CNC(=O)[C@H]1N(C(=O)[C@@H](O)[C@H](Cc2ccccc2)NC(=O)[C@@H](NS(C)(=O)=O)C(C)C)CSC1(C)C [Example 37, (R)-N-(2-methylbenzyl)-3-{(2S,3S)-2-hydroxy-3-[(S)-2-methanesulfonylamino-3-methylbutanoyl]amino-4-phenylbutanoyl}-5,5-dimethyl-1,3-thiazolidine-4-car boxamide] | 70.1%
5 | Cc1ccccc1CNC(=O)[C@H]1N(C(=O)[C@@H](O)[C@H](Cc2ccccc2)NC(=O)[C@H](C)NC(=O)COc2cccc(N(C)C)c2)CSC1(C)C [Example 26, (R)-N-(2-methylbenzyl)-3-{(2S,3S)-2-hydroxy-3-[(S)-2-(3-dimethylaminophenoxyacetyl)aminopropanoyl]amino-4-phenylbutanoyl}-5,5-dimethyl-1,3-thiazolidine-4-carboxamide] | 99.9%
6 | Cc1ccccc1CNC(=O)[C@H]1N(C(=O)[C@@H](O)[C@H](Cc2ccccc2)NC(=O)[C@@H](NC(=O)c2nc3ccccc3s2)C(C)C)CSC1(C)C [Example 14, (R)-N-(2-methylbenzyl)-3-{(2S,3S)-3-[N-(2-benzothiazolecarbonyl)-L-valyl]amino-2-hydroxy-4-phenylbutanoyl}-5,5-dimethyl-1,3-thiazolidine-4-carboxamide] | 95.8%
7 | Cc1ccccc1CNC(=O)[C@@H]1CSCN1C(=O)[C@@H](O)[C@H](Cc1ccccc1)NC(=O)[C@H](CC(N)=O)NC(=O)OCc1ccccc1 [Example 2, (R)-N-(2-methylbenzyl)-3-{(2S,3S)-3-[N-(benzyloxycarbonyl)-L-asparaginyl]amino-2-hydroxy-4-phenylbutanoyl}-1,3-thiazolidine-4-carboxamide] | 71.7%
8 | CCOC(=O)N[C@H](C(=O)N[C@@H](Cc1ccccc1)[C@H](O)C(=O)N1CSC(C)(C)[C@H]1C(=O)NCc1ccccc1C)C(C)C [Example 29, (R)-N-(2-methylbenzyl)-3-{(2S,3S)-2-hydroxy-3-[(S)-2-(ethoxycarbonyl)amino-3-methylbutanoyl]amino-4-phenylbutanoyl}-5,5-dimethyl-1,3-thiazolidine-4-ca rboxamide] | 93%
9 | CC[C@H](NS(C)(=O)=O)C(=O)N[C@@H](Cc1ccccc1)[C@H](O)C(=O)N1CSC(C)(C)[C@H]1C(=O)NCc1ccccc1C [Example 38, (R)-N-(2-methylbenzyl)-3-{(2S,3S)-2-hydroxy-3-[(S)-2-methanesulfonylaminobutanoyl]amino-4-phenylbutanoyl}-5,5-dimethyl-1,3-thiazolidine-4-carboxamide] | 76%
10 | Cc1ccccc1CNC(=O)[C@H]1N(C(=O)[C@@H](O)[C@H](Cc2ccccc2)NC(=O)[C@@H](NC(=O)COc2cccc(N(C)C)c2)C(C)C)CSC1(C)C [Example 22, (R)-N-(2-methylbenzyl)-3-{(2S,3S)-2-hydroxy-3-[(S)-2-(3-dimethylaminophenoxyacetyl)amino-3-methylbutanoyl]amino-4-phenylbutanoyl}-5,5-dimethyl-1,3-thi azolidine-4-carboxamide] | 97.6%
11 | Cc1ccccc1CNC(=O)[C@H]1N(C(=O)[C@@H](O)[C@H](Cc2ccccc2)NC(=O)[C@H](CC(N)=O)NC(=O)c2cnc3ccccc3n2)CSC1(C)C [Example 18, (R)-N-(2-methylbenzyl)-3-{(2S,3S)-3-[N-(2-quinoxalinecarbonyl)-L-asparaginyl]amino-2-hydroxy-4-phenylbutanoyl}-5,5-dimethyl-1,3-thiazolidine-4-carboxamide] | 98.8%
12 | CC[C@H](NC(C)=O)C(=O)N[C@@H](Cc1ccccc1)[C@H](O)C(=O)N1CSC(C)(C)[C@H]1C(=O)NCc1ccccc1C [Example 34, (R)-N-(2-methylbenzyl)-3-{(2S,3S)-2-hydroxy-3-[(S)-2-acetylaminobutanoyl]amino-4-phenylbutanoyl}-5,5-dimethyl-1,3-thiazolidine-4-carboxamide] | 88.9%
13 | CC1(C)SCN(C(=O)[C@@H](O)[C@H](Cc2ccccc2)NC(=O)[C@H](CC(N)=O)NC(=O)OCc2ccccc2)[C@@H]1C(=O)NCc1ccccc1Cl [Example 5, (R)-N-(2-chlorobenzyl)-3-{(2S,3S)-3-[N-(benzyloxycarbonyl)-L-asparaginyl]amino-2-hydroxy-4-phenylbutanoyl}-5,5-dimethyl-1,3-thiazolidine-4-carboxamide] | 98.4%
14 | COCC(=O)N[C@H](C(=O)N[C@@H](Cc1ccccc1)[C@H](O)C(=O)N1CSC(C)(C)[C@H]1C(=O)NCc1ccccc1C)C(C)C [Example 31, (R)-N-(2-methylbenzyl)-3-{(2S,3S)-2-hydroxy-3-[(S)-2-(methoxyacetyl)amino-3-methylbutanoyl]amino-4-phenylbutanoyl}-5,5-dimethyl-1,3-thiazolidine-4-car boxamide] | 89.6%
15 | COc1cccc2cc(C(=O)N[C@@H](C)C(=O)N[C@@H](Cc3ccccc3)[C@H](O)C(=O)N3CSC(C)(C)[C@H]3C(=O)NCc3ccccc3C)oc12 [Example 20, (R)-N-(2-methylbenzyl)-3-{(2S,3S)-2-hydroxy-3-[(S)-2-(7-methoxy-2-benzofurancarbonyl)aminopropanoyl]amino-4-phenylbutanoyl}-5,5-dimethyl-1,3-thiazolidine-4-carboxamide] | 97.6%
16 | COCCOC(=O)N[C@H](C(=O)N[C@@H](Cc1ccccc1)[C@H](O)C(=O)N1CSC(C)(C)[C@H]1C(=O)NCc1ccccc1C)C(C)C [Example 30, (R)-N-(2-methylbenzyl)-3-{(2S,3S)-2-hydroxy-3-[(S)-2-(methoxyethoxycarbonyl)amino-3-methylbutanoyl]amino-4-phenylbutanoyl}-5,5-dimethyl-1,3-thiazolidine-4-carboxamide] | 94.2%
17 | Cc1ccccc1CNC(=O)[C@H]1N(C(=O)[C@@H](O)[C@H](Cc2ccccc2)NC(=O)[C@@H](NC(=O)c2ccc3ccccc3n2)C(C)C)CSC1(C)C [Example 13, (R)-N-(2-methylbenzyl)-3-{(2S,3S)-3-[N-(2-quinolinecarbonyl)-L-valyl]amino-2-hydroxy-4-phenylbutanoyl}-5,5-dimethyl-1,3-thiazolidine-4-carboxamide] | 96.6%
